Reference: patent US6369104B1, “Biocidal compositions and use thereof containing a synergistic mixture of glutaraldehyde and 2,2-dibromo-3 nitrilo propionamide” (Hercules Incorporated, priority 2000, dated 2002)

Tested on: Klebsiella pneumoniae
Experiment: Checkerboard growth inhibition (turbidity at 590 nm) with Kull synergism index
Assay type: cell-based
Procedure: Glutaraldehyde and DBNPA were added in varying ratios over a wide range of concentrations to a liquid nutrient medium which was subsequently inoculated with a standard volume of a suspension of the facultative bacterium Klebsiella pneumoniae. Growth was measured by turbidity at 590 nm in a microplate spectrophotometer. The effect of the biocide chemicals, alone and in combination, is to reduce the growth (turbidity) of the bacterial cells as compared to controls not treated with the chemicals. Additions of the biocides, alone and in varying combinations and concentrations, were made according to the accepted “checkerboard” technique described by M. T. Kelly and J. Matsen, Antimicrobial Agents and Chemotherapy. 9:440 (1976). Growth was measured after overnight incubation at 30° C. Each unique sample concentration was tested in triplicate. The percent reduction of each treated sample was calculated from the relationship: [formula]
Plotting the % reduction of turbidity against the concentration of each biocide acting alone results in a dose-response curve, from which the biocide dose necessary to achieve a given % reduction can be interpolated.
Synergism was determined by the method of calculation described by F. C. Kull, P. C. Eisman, H. D. Sylwestrowicz and R. L. Mayer, Applied Microbiology, 9:538 (1961) using the relationship:
(QA/Qa)+(QB/Qb)=Synergism Index (SI)
Qa=quantity of compound A, acting alone, producing an end point
Qb=quantity of compound B, acting alone, producing an end point
QA=quantity of compound A, in mixture, producing an end point
QB=quantity of compound B, in mixture, producing an end point
The end point used in the calculations is the % reduction caused by each mixture of A and B. QA and QB are the individual concentrations in the A/B mixture causing a given % reduction. QA and QB are determined by interpolation from the respective dose-response curves of A and B as those concentrations of A and B acting alone which produce the same % reduction as each specific mixture produced.
Dose-response curves for each active acting alone were determined by linear regression analysis of dose-response data. Data were fitted to a curve represented by the equation shown with each data set. After linearizing the data, the contributions of each biocide component in the biocide mixtures to the inhibition of turbidity were determined by a linear regression method with the dose-response curve of the respective biocide. If, for example, quantities of QA and QB are sufficient to give a 50% reduction in turbidity, Qa and Qb are those quantities of A and B acting alone respectively, found to give 50% reduction in turbidity. A synergism index (SI) is calculated for each combination of A and B.
Where the SI is less than 1, synergism exists. Where the SI=1, additivity exists. Where SI is greater than 1, antagonism exists.
The data in the following tables come from treating Klebsiella pneumoniae, a common nuisance bacterial type found in industrial cooling waters and in pulping and paper making systems, with varying ratios and concentrations of glutaraldehyde and DBNPA. Shown for each combination is the % reduction of turbidity (%I), the calculated SI, and the weight ratio of glutaraldehyde and DBNPA.

N#CC(Br)(Br)C(N)=O [DBNPA, 2,2-dibromo-3-nitrilopropionamide]
% I (% reduction of turbidity) (Table I, DBNPA 3.2 ppm alone): 60%
% I (% reduction of turbidity) (Table I, DBNPA 6.3 ppm alone): 62%
% I (% reduction of turbidity) (Table I, DBNPA 12.5 ppm alone): 65%
% I (% reduction of turbidity) (Table I, DBNPA 25 ppm alone): 72%
% I (% reduction of turbidity) (Table I, DBNPA 50 ppm alone): 86%
% I (% reduction of turbidity) (Table I, DBNPA 100 ppm alone): 100%
% I (% reduction of turbidity) (Table II, DBNPA 3.2 ppm alone): 84%
% I (% reduction of turbidity) (Table II, DBNPA 6.3 ppm alone): 85%
% I (% reduction of turbidity) (Table II, DBNPA 12.5 ppm alone): 87%
% I (% reduction of turbidity) (Table II, DBNPA 25 ppm alone): 89%
% I (% reduction of turbidity) (Table II, DBNPA 50 ppm alone): 95%
% I (% reduction of turbidity) (Table II, DBNPA 100 ppm alone): 100%

O=CCCCC=O [Glutaraldehyde, glutaraldehyde]
% I (% reduction of turbidity) (Table I, Glutaraldehyde 9.4 ppm alone): 0%
% I (% reduction of turbidity) (Table I, Glutaraldehyde 18.8 ppm alone): 0%
% I (% reduction of turbidity) (Table I, Glutaraldehyde 37.5 ppm alone): 6%
% I (% reduction of turbidity) (Table I, Glutaraldehyde 75 ppm alone): 22%
% I (% reduction of turbidity) (Table I, Glutaraldehyde 150 ppm alone): 53%
% I (% reduction of turbidity) (Table I, Glutaraldehyde 300 ppm alone): 100%
% I (% reduction of turbidity) (Table II, Glutaraldehyde 9.4 ppm alone): 2%
% I (% reduction of turbidity) (Table II, Glutaraldehyde 18.8 ppm alone): 6%
% I (% reduction of turbidity) (Table II, Glutaraldehyde 37.5 ppm alone): 13%
% I (% reduction of turbidity) (Table II, Glutaraldehyde 75 ppm alone): 28%
% I (% reduction of turbidity) (Table II, Glutaraldehyde 150 ppm alone): 58%
% I (% reduction of turbidity) (Table II, Glutaraldehyde 300 ppm alone): 100%
